Test results reported in publication PMC8703605, “Enhancement of the Topical Bioavailability and Skin Whitening Effect of Genistein by Using Microemulsions as Drug Delivery Carriers” (Pharmaceuticals, 2021).
Values after ≈ are worked out from the molar mass of the structure shown. Where two headings read alike, the source gives them in different places.

Experiments:
[1] = Solubility of genistein in different vehicles (shake flask, HPLC); type: physicochemical
Protocol: An excess amount of genistein was added to 1 mL each of the vehicles, including receptor buffer and oils, into a 1.5-mL Eppendorf, which was placed on a reciproacting shaker (Shaking Bath, Model B601D, Firstek Co., Ltd., Taipei, Taiwan) and shaken for more than 24 h at room temperature. Then each smaple was centrifuged at 12,000 rpm for 10 min. The drug concentration in supernatant was analyzed by HPLC.
Hitachi HPLC system (Hitachi, Tokyo, Japan), including model L-7100 pump, L-5210 autosampler, model L-4000H detector, and Merck Lichrocart® 100 RP 18 column (250 mm × 4 mm, 5 μm), was used. The mobile phase was composed of methanol and 0.05% phosphoric acid aqueous solution at ratios of 80/20 v/v. The flow rate and detection wavelength were at 1.0 mL/min and 230 nm, respectively. Diazepam solution was used as internal standard. The analytical method was successfully validated for linearity (1.0~100.0 μg/mL), with a determination coefficient (R^2) of 0.9997, precision of coefficient of variation (CV, %) of 4.16%, and accuracy of relative error (RE, %) of 5.71%. The limit of quantitation was 0.5 µg/mL.

[2] = set-up: method as in PMID 20190449; conditions: at 25 °C; cited from earlier work
Salmonella typhimurium = tested on: Salmonella typhimurium; set-up: method as in PMID 16198038, PMID 9748575, PMID 2548712; conditions: cited from earlier work
mice = tested on: mice; set-up: method as in PMID 16198038, PMID 9748575, PMID 2548712; conditions: cited from earlier work
rats = tested on: rats; set-up: method as in PMID 16198038, PMID 9748575, PMID 2548712; conditions: cited from earlier work
[3] = In vivo pharmacokinetic determination; conditions: 20 mg/kg; for Cmax / Tmax / half-life / AUC: male, Sprague-Dawley, rat, in vivo; for AUC: AUC0→ꝏ
Protocol: Rats were divided into two groups, i.e., tranderaml (test) group and oral (control) group, each of three. Rats were anesthetized by 10% chloral hydrate (dosing 0.3 mL/100 g) for intraperitoneal injection. After being anesthetized, hairs on the abdominal skin were removed by an electric shaver. Then, a glass ring with a diameter of 3 cm was fixed on the skin by a quick-drying glue. The applied dose of 20 mg/kg of the tested microemulsion formulation was placed inside the glass ring. […] Blood samples of approximately 0.6 mL were collected from the jugular vein and placed into a 1.5-mL Eppendorf at predetermined time intervals after transdermal administration. Then, the blood sample was centrifuged at 12,000 rpm for 10 min. The plasma samples were stored at −20 °C until analysis. Three to six replicates were conducted for each formulation.
Sample preparation [49, 53, 54]: A 100 μL of plasma samples was incubated with 100 μL of the sulfatase (approximately 200 unit) at 37 ± 0.5 °C for 5 h. Then, 100 µL Nicotine 4 µg/mL was used as internal standard added to the sample, then vortexed for 10 s. A total of 1 mL tert-methyl butyl ether was added for extract solution and vortexed for 10 min and then centrifuged at 10,000 rpm for 10 min. The supernatant of 800 µL was transferred to Eppendorf and evaporated to dryness in the vacuum oven (EYELA CVE-3000, Tokyo, Japan) for 1 h and 40 °C. The residue was reconstituted with 100 µL methanol and analyzed.
The pharmacokinetic analysis includes the following quantities: area under the curve (AUC), maximum plasma concentration (Cmax), the time needed to reach the maximum plasma concentration (Tmax), and the half-life (t1/2) of the drug. All values are presented as the mean ± standard deviation (SD). All data were processed using Phoenix WinNonlin 6.3 (Pharsight Corporation, Sunnyvale, CA, USA) to construct pharmacokinetic profiles. Data were analyzed by using the ANOVA test to evaluate the differences between the groups, and values of p < 0.05 indicated significant differences compared with control.

O=c1c(-c2ccc(O)cc2)coc2cc(O)cc(O)c12 [genistein, 4′,5,7-trihydroxyisoflavone]
Increase of solubility in co-surfactant vs distilled water ([1]; co-surfactant): > 8415 fold | solubility ([1]; in Distilled water, room temperature, read-out: Solubility): ~0.01 mg/mL (≈ 0.037 mM) | solubility ([1]; microemulsion with PEG 400 concentration 0, read-out: Solubility in microemulsion): 11.1 mg/mL (≈ 41 mM) | solubility ([1]; microemulsion with PEG 400 concentration 20%, read-out: Solubility in microemulsion): 32 mg/mL (≈ 118 mM) | Increase of solubility in oil vs distilled water ([1]; oil): more than 13 fold | solubility ([1]; oil or lipid, thermodynamic from solid, in Capryol 90, room temperature, read-out: Solubility): 5.2 ± 0.23 mg/mL (≈ 19.2 mM) | solubility ([1]; oil or lipid, thermodynamic from solid, in Oleic acid, room temperature, read-out: Solubility): 0.13 ± 0.02 mg/mL (≈ 0.481 mM) | solubility ([1]; oil or lipid, thermodynamic from solid, in Peceol, room temperature, read-out: Solubility): 0.36 ± 0.01 mg/mL (≈ 1.33 mM) | solubility ([1]; organic solvent or mixture, thermodynamic from solid, in PEG 400, room temperature, read-out: Solubility): 84.2 ± 5.61 mg/mL (≈ 311 mM) | solubility ([1]; organic solvent or mixture, thermodynamic from solid, in Transcutol HP, room temperature, read-out: Solubility): 94.7 ± 3.92 mg/mL (≈ 350 mM) | Increase of solubility in surfactant vs distilled water ([1]; surfactant): > 1903 fold | solubility ([1]; thermodynamic from solid, in Brij 30, room temperature, read-out: Solubility): 27.7 ± 1.8 mg/mL (≈ 103 mM) | solubility ([1]; thermodynamic from solid, in Cremophor EL, room temperature, read-out: Solubility): 19.4 ± 6.15 mg/mL (≈ 71.9 mM) | solubility ([1]; thermodynamic from solid, in Labrasol, room temperature, read-out: Solubility): 55.5 ± 3.56 mg/mL (≈ 205 mM) | solubility ([1]; thermodynamic from solid, in Tween 80, room temperature, read-out: Solubility): 19 ± 1.37 mg/mL (≈ 70.4 mM) | solubility ([1]; water, thermodynamic from solid, in Distilled water, room temperature, read-out: Solubility): 0.01 mg/mL (≈ 0.037 mM) | solubility in water [2]: 5.3 µM (≈ 1.43 µg/mL) | Mutagenicity (Salmonella typhimurium): not mutagenic | Mutagenicity and teratogenicity (mice): not mutagenic or teratogenic | Mutagenicity and teratogenicity (rats): not mutagenic or teratogenic | Cmax ([3]; po): 3120 ± 1800 ng/mL | Tmax ([3]; po): 3.67 ± 0.43 h | half-life ([3]; po): 6.52 ± 1.24 h | AUC ([3]; po, rats, aqueous suspension, n = 3): 33900 ± 4760 ng·h/mL | Cmax ([3]; topical or ocular): 9120 ± 570 ng/mL | Tmax ([3]; topical or ocular): 7.26 ± 1.11 h | half-life ([3]; topical or ocular): 19.3 ± 5.05 h | AUC ([3]; topical or ocular, rats, transdermal, microemulsion, n = 3): 329000 ± 50000 ng·h/mL | AUC0→ꝏ ([3]; rats, oral, aqueous suspension, n = 3): 33910 ± 4760 ng·h/mL
